Several values for one entry are separate records, joined by “and”; a condition that tells them apart may be missing. Equal values may be shown once. Read-outs that look alike come from different tables or passages of the source.
Tests used:
mice [1] = assay: Conditioned place aversion
mouse = mouse tail flick test; cited from earlier work
mice [2] = assay: Compound 48/80 scratching test; type: in vivo
P-glycoprotein = conditions: cited from earlier work
MOR = MOR (Rattus norvegicus, UniProt P33535); assay: [35S]GTPγS binding to membranes of CHO cells stably expressing the MOR; type: biochemical; conditions: for Maximal Effect, MOR: % of maximal [35S]GTPγS binding of reference full agonist DAMGO; for agonist type at the MOR: [35S]GTPγS binding
MOR, sequence (P33535 whole entry): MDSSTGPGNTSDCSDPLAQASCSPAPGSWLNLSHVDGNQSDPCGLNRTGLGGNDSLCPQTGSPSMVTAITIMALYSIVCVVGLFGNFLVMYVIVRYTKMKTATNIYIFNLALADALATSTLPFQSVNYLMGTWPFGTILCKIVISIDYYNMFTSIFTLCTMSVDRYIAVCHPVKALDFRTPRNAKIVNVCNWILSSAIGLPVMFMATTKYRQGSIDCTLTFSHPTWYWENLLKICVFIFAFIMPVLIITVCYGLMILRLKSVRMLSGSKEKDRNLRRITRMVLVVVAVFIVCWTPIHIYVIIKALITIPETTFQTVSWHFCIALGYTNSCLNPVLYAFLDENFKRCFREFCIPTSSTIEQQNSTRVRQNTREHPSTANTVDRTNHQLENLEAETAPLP

mice [3] = conditions: nalfurafine up to 20 μg/kg, U50,488 5 mg/kg; cited from earlier work
DOR = DOR (Mus musculus, UniProt P32300); assay: [35S]GTPγS binding to membranes of CHO cells stably expressing the DOR; type: biochemical; conditions: for agonist type at the DOR: [35S]GTPγS binding, relatively low potency
DOR, sequence (P32300 whole entry): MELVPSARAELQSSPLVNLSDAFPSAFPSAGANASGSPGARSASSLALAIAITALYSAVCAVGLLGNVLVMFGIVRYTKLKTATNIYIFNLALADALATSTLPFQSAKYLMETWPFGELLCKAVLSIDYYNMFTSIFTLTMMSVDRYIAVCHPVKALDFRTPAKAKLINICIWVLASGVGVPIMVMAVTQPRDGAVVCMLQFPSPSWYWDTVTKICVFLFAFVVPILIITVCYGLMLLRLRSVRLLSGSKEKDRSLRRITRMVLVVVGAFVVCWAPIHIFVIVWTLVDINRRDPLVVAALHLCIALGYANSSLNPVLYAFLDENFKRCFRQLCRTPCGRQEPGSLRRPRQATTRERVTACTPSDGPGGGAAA

NOR = NOR (Homo sapiens, UniProt P41146); assay: [35S]GTPγS binding to membranes of CHO cells stably expressing the NOR; type: biochemical; conditions: for agonist type at the NOR: [35S]GTPγS binding, relatively low potency
NOR, sequence (P41146 whole entry): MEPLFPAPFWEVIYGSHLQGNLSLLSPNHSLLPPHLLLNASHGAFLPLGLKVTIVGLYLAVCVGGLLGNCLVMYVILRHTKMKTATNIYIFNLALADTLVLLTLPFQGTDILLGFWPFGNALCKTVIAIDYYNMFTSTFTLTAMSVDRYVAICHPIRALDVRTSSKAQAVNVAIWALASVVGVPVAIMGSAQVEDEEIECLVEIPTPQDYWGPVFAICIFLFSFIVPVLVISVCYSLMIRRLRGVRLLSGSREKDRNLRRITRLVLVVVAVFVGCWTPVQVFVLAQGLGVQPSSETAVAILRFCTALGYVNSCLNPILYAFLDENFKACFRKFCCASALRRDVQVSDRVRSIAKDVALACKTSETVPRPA

human KOR = assay: G protein bias from RAi of GloSensor cAMP and Tango assays; type: cell-based; conditions: RAi−G divided by RAi−b, U50,488H as balanced agonist
mice [4] = conditions: cited from earlier work
mice [5] = conditions: late phase of the formalin test; cited from earlier work
KOR [6] = molecular target: T1, KOR (Homo sapiens, UniProt P41145); assay: GloSensor cAMP assay; type: cell-based; conditions: for more potent than U50,488H, inhibition of cAMP accumulation: EC50 ratio vs U50,488H
T1 sequence (P41145 whole entry): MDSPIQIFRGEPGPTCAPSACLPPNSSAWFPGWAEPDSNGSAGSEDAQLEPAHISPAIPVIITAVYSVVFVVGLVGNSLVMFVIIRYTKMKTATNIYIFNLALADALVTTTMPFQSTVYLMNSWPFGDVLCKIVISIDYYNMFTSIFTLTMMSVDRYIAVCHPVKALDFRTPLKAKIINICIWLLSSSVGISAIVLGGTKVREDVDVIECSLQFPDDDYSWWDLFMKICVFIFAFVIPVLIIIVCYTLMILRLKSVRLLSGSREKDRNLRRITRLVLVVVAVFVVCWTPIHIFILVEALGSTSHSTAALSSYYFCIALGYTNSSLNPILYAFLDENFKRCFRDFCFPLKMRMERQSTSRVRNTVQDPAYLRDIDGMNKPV

KOR [7] = molecular target: T1, KOR; assay: Tango assay; type: cell-based
mice [8] = conditions: cited from earlier work; remark: listed apart in the source
KOR [9] = molecular target: T1, KOR; assay: [35S]GTPγS binding to membranes of CHO cells stably expressing the KOR; type: biochemical; conditions: for Maximal Effect, KOR: % of maximal [35S]GTPγS binding of reference full agonist (−)U50,488H
mice [10] = assay: Rotarod test; type: in vivo
mice [11] = assay: Novelty-induced locomotor activity; type: in vivo; conditions: 1, 3, 5 mg/kg s.c., 0–30 min post-injection
mice [12] = assay: Formalin test; type: in vivo; conditions: s.c. 5 min before formalin, licking time phase II

In the case of `C=CCN1CC[C@]23c4c5ccc(O)c4O[C@H]2C(=O)CC[C@@]3(O)[C@H]1C5` [naloxone], the “CPA or CPP in the naloxone experiment” value (mice [1]; naloxone 1 mg/kg alone, U50,488 5 mg/kg as positive control) is listed as “Neither naloxone (1 mg/kg) alone nor a combination of naloxone (1 mg/kg) and 42B (3 mg/kg) caused CPA or CPP” and the “more potent in antagonizing morphine- than U50,488- or spiradoline-induced antinociception” value (mouse) is listed as 20–36 times.
With `Oc1ccc2c3c1O[C@H]1c4[nH]c5c(c4C[C@@]4(O)[C@@H](C2)N(CC2CC2)CC[C@]314)C[C@@]1(O)[C@H]2Cc3ccc(O)c4c3[C@@]1(CCN2CC1CC1)[C@H]5O4` [norBNI, nor-binaltorphimine] the “effect on compound 48/80-induced scratching, alone” value (mice [2]; norBNI 20 mg/kg i.p. 20 h before saline) was “no effects”.
For `CN(C(=O)/C=C/c1ccoc1)[C@@H]1CC[C@@]2(O)[C@H]3Cc4ccc(O)c5c4[C@@]2(CCN3CC2CC2)[C@H]1O5` [Nalfurafine], the P-glycoprotein substrate (P-glycoprotein) is given as “P-glycoprotein substrate”, the EC50 (MOR) is given as 3.11 ± 0.63 nM and the “Maximal Effect, MOR” value (MOR) is given as 73.88 ± 2.93%. The “agonist type at the MOR” value (MOR) was “partial agonists”, the CPA (mice [3]) was “did not produce CPA” and the “more potent than 42B in the anti-scratch test” value (mice [2]; A50 ratio nalfurafine vs 42B) was “about 340 x”. For the same compound, the “agonist type at the DOR” value (DOR) was “full agonism”, the Emax (DOR; read-out: Maximal Effect, DOR) was 129 ± 3.2% and the EC50 (NOR) was 280 ± 17.7 nM. The “agonist type at the NOR” value (NOR) was “full agonism”, the Emax (NOR; read-out: Maximal Effect, NOR) was 120 ± 2.2% and the “G Biased factor (95% CI)” value (human KOR) was 4.49 (1.79–11.1). The “G Biased factor (95% CI)” value (human KOR; listed as nalfurafine) was 4.49, the “A50, compound 48/80-induced scratching” value (mice [4]) was 8.0 µg/kg and the “A50, formalin test” value (mice [5]) was 5.8 µg/kg. The “more potent than U50,488H, inhibition of cAMP accumulation” value (KOR [6]) was ~ 9 fold, the Emax (KOR [6]; HEK-293T, read-out: GloSensor cAMP assay Emax) was 69.8 ± 1.53% and the “more potent than 42B in inhibition of forskolin-stimulated adenylyl cyclase (Glosensor assay)” value (KOR [6]; nalfurafine vs 42B) was ~ 5 X. The Emax (KOR [7]; HEK293, read-out: Tango assay Emax) was 108 ± 2.6%, the rotarod performance (mice [8]; 20 μg/kg, at 30 min and 40 min following injection) was “small, yet significant, effects” and the “time of peak effect in rotarod test” value (mice [8]; slight lowering effect) was 30 min. For the same compound, the “Maximal Effect, KOR” value (KOR [9]) was 90.90 ± 3.25%, the “agonist type at the KOR” value (KOR [9]; [35S]GTPγS binding) was “full agonists” and the “potency at the KOR higher than that of 42B” value (KOR [9]; [35S]GTPγS binding EC50 ratio, nalfurafine vs 42B) was ~ 250 fold.
For `CN(C(=O)/C=C/c1ccoc1)[C@@H]1CC[C@@]2(O)[C@H]3Cc4cccc5c4[C@@]2(CCN3CC2CC2)[C@H]1O5` [42B], the “rotarod performance at 1 mg/kg” value (mice [10]; 1 mg/kg, at 10 min) was “significant effect”, the rotarod performance (mice [10]; 1, 3, 5 mg/kg s.c., tested 10, 20, 30, 40 min) was “dose-dependently caused performance impairment” and the “time of peak effect in rotarod test” value (mice [10]; among time points tested 10–40 min) was 10 min. The “time of return to control level in rotarod test” value (mice [10]; mouse, in vivo) was 40 min, the “Maximal Effect, MOR” value (MOR) was 49% and 48.87 ± 2.45% and the “agonist type at the MOR” value (MOR) was “partial agonists”. For the same compound, the novelty-induced hyperlocomotion (mice [11]) was “significant and dose-dependent reduction”, the “effect of norBNI pretreatment on anti-scratch activity” value (mice [2]; norBNI 20 mg/kg i.p. 20 h before 42B 3 mg/kg) was “eliminated the anti-scratch activity” and the “A50, compound 48/80-induced scratching” value (mice [2]; s.c. 20 min before compound 48/80, bouts counted 30 min, mice) was 2.82 mg/kg. For the same compound, the “Maximal Effect, DOR” value (DOR; % of maximal [35S]GTPγS binding of reference full agonist DPDPE) was 134.7 ± 3.4%, the “agonist type at the DOR” value (DOR) was “full agonism” and the CPA (mice [1]; 1, 3, 5 mg/kg s.c., 6 days conditioning) was “did not cause CPA”. The “effect of MOR blockade by naloxone on lack of CPA” value (mice [1]; naloxone 1 mg/kg s.c. 25 min before 42B 3 mg/kg) was “did not affect its lack of CPA”, the “agonist type at the NOR” value (NOR) was “full agonism” and the “A50, formalin test” value (mice [12]) was 2.08 mg/kg. For the same compound, the “more potent than U50,488H, inhibition of cAMP accumulation” value (KOR [6]) was ~ 2 fold, the “GloSensor cAMP assay Emax” value (KOR [6]; maximal degree of inhibition, mean ± SEM n=3) was 74.40±1.68% and the EC50 (KOR [6]; read-out: GloSensor cAMP assay EC50, inhibition of cAMP, mean ± SEM n=3) was 0.82 ± 0.18 nM. The “lower potency for β-arrestin recruitment than U50,488H” value (KOR [7]; EC50 ratio vs U50,488H) was ~ 2 fold, the “lower potency for β-arrestin recruitment than nalfurafine” value (KOR [7]; EC50 ratio vs nalfurafine) was ~ 4 fold and the EC50 (KOR [7]; read-out: Tango assay EC50, β-arrestin2 recruitment, mean ± SEM n=3) was 3.22 ± 0.42 nM. For the same compound, the “Tango assay Emax” value (KOR [7]; β-arrestin2 recruitment, mean ± SEM n=3, % printed in b16 only) was 116.8±1.0 %, the “Maximal Effect, KOR” value (KOR [9]) was 91% and 91.34 ± 1.15% and the “agonist type at the KOR” value (KOR [9]; [35S]GTPγS binding) was “full agonists”. It also gave an EC50 (KOR [9]; read-out: EC50, KOR, [35S]GTPγS binding, CHO membranes, 100 mM NaCl, mean ± SEM n=3–4) of 25.6 ± 1.5 nM.

Source: paper PMC8336721 (ACS chemical neuroscience, 2020)
